Source: ChEMBL document CHEMBL3596148, “Meridianin derivatives as potent Dyrk1A inhibitors and neuroprotective agents” (Bioorg Med Chem Lett, 2015)

What was measured:
[1] = target: T1, Aurora kinase A (Homo sapiens) (UniProt O14965); experiment: Inhibition of Aurora A (unknown origin) at 0.5 uM relative to control
T1 sequence (whole entry): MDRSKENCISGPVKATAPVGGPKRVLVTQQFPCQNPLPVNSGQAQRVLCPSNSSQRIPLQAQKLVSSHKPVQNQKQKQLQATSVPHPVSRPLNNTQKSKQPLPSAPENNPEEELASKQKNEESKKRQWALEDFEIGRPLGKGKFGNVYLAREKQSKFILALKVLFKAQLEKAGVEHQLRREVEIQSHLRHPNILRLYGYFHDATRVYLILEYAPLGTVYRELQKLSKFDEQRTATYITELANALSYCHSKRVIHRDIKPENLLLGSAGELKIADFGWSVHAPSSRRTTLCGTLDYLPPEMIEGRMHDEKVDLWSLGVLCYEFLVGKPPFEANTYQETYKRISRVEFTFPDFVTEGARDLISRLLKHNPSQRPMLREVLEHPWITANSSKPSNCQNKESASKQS

[2] = target: AMP-activated protein kinase, AMPK (Homo sapiens) (UniProt P54646+O43741+P54619+Q9UGJ0+Q9Y478+Q13131+Q9UGI9); experiment: Inhibition of AMPK (unknown origin) at 0.5 uM relative to control; type: protein-complex assay
[3] = target: RAC-alpha serine/threonine-protein kinase (Homo sapiens) (UniProt P31749); experiment: Inhibition of PKBalpha (unknown origin) at 0.5 uM relative to control
Sequence of RAC-alpha serine/threonine-protein kinase (Homo sapiens) (P31749 whole entry): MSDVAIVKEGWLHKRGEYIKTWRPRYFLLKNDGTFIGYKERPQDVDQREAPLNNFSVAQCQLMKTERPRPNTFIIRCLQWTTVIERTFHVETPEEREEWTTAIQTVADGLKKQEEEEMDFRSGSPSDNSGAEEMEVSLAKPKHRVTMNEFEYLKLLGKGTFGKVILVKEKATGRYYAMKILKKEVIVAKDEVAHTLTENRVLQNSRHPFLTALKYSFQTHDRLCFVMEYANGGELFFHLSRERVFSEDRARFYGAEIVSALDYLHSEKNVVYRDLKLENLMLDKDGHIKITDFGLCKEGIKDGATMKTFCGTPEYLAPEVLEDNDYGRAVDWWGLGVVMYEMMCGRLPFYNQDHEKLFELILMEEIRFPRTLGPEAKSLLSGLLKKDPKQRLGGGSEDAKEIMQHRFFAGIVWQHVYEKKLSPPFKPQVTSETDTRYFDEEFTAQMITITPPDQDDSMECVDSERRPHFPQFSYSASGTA

[4] = target: Protein kinase C alpha type (Homo sapiens) (UniProt P17252); experiment: Inhibition of PKCalpha (unknown origin) at 0.5 uM relative to control
[5] = target: Insulin-like growth factor 1 receptor (Homo sapiens) (UniProt P08069); experiment: Inhibition of IGF-1R (unknown origin) at 0.5 uM relative to control
Sequence of Insulin-like growth factor 1 receptor (Homo sapiens) (P08069 31-736 limits assumed): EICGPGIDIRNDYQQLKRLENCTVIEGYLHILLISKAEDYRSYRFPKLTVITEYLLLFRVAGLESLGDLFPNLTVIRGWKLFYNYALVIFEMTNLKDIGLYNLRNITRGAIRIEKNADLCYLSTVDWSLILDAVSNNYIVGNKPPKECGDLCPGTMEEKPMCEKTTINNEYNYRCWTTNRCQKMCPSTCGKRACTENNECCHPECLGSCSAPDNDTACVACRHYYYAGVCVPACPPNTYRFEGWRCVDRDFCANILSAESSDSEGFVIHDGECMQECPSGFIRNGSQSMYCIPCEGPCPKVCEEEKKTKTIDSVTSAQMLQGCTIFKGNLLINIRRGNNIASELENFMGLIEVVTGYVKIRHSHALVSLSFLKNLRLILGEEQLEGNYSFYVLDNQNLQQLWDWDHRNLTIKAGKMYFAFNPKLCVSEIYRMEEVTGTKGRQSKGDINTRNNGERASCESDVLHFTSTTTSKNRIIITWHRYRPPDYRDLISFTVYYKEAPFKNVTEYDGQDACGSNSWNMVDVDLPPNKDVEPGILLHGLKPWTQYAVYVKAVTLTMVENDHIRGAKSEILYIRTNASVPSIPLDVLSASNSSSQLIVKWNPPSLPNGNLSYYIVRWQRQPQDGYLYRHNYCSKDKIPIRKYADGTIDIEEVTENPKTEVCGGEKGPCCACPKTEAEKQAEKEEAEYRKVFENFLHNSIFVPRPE
Sequence of Insulin-like growth factor 1 receptor (Homo sapiens) (P08069 741-1367 limits assumed): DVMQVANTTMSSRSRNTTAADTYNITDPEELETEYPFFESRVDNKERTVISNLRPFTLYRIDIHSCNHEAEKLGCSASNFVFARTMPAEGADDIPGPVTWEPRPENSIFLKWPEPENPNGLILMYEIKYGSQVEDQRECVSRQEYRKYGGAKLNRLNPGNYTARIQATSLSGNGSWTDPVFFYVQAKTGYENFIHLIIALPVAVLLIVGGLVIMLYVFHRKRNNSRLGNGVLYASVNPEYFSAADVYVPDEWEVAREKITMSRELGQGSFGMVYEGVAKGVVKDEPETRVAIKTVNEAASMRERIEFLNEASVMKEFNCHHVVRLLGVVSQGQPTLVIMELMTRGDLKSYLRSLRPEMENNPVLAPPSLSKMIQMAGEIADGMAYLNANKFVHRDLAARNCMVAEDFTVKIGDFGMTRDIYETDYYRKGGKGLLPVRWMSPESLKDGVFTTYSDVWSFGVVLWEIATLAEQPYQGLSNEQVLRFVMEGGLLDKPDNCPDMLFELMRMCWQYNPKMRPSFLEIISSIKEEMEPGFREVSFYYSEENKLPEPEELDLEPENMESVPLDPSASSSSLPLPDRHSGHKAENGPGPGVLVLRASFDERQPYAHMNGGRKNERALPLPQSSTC

SH-SY5Y = experiment: cells; conditions: Homo sapiens, 24 h
[6] = target: Dual specificity tyrosine-phosphorylation-regulated kinase 1A (Homo sapiens, UniProt Q13627); experiment: Inhibition of Dyrk1A (unknown origin) using Woodtide as substrate after 30 mins by P81 membrane assay in presence of [33P]-g-ATP

Work on Nc1nccc(-c2cn(C(=O)N3CCOCC3)c3ccc(Br)cc23)n1 yielded an inhibition [1] of 0%, an inhibition [2] of 4.4% and an inhibition [3] of 16.4%. The inhibition [4] was 26.5%, the inhibition [5] was 2.1% and the IC50 (SH-SY5Y) was over 100000 nM. For the same compound, the IC50 [6] was 500 nM.
